Reference: the supplement of paper PMC6411743

compound: Nc1nc2c(ncn2[C@@H]2O[C@H](COP(=O)(O)OP(=O)(O)OP(=O)(O)O)[C@@H](O)[C@H]2O)c(=O)[nH]1 [guanosine triphosphate]; test: pEC50 of GTP-induced change in protein thermal stability (2D-TPP)
Method: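 2D thermal proteome profiling in Jurkat crude lysate. Lysate was treated 10 min at room temperature with Na-GTP (0, 0.001, 0.01, 0.1, 0.5 mM), heated to 12 temperatures (42-63.9 °C) for 3 min, and soluble protein was quantified by TMT10 LC-MS/MS. pEC50 is the median over replicates of dose-response fits (FDR-controlled hits).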
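For pEC50 of ATP-induced change in protein thermal stability (2D-TPP) in this document: lysate dosed with Na-ATP at 0 0.005 0.05 0.5 and 2 mM.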

Chain of UniProt O14773 (O14773 whole entry): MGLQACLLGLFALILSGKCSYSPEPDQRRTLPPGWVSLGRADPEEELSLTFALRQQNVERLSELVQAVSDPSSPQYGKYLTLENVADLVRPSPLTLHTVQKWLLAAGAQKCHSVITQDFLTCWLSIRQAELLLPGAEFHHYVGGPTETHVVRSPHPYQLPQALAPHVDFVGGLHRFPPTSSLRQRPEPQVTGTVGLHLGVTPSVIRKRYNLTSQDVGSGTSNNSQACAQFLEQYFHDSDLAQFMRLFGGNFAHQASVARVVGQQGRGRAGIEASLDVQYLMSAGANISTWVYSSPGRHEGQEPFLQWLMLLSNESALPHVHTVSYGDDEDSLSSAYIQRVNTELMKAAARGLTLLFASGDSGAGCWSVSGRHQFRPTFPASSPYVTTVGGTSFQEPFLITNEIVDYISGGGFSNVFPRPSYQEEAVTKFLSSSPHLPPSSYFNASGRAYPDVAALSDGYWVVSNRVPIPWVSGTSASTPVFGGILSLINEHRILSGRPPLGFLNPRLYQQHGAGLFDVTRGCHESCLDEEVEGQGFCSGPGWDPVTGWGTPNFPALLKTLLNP
Chain of UniProt Q9C0J8 (Q9C0J8 whole entry): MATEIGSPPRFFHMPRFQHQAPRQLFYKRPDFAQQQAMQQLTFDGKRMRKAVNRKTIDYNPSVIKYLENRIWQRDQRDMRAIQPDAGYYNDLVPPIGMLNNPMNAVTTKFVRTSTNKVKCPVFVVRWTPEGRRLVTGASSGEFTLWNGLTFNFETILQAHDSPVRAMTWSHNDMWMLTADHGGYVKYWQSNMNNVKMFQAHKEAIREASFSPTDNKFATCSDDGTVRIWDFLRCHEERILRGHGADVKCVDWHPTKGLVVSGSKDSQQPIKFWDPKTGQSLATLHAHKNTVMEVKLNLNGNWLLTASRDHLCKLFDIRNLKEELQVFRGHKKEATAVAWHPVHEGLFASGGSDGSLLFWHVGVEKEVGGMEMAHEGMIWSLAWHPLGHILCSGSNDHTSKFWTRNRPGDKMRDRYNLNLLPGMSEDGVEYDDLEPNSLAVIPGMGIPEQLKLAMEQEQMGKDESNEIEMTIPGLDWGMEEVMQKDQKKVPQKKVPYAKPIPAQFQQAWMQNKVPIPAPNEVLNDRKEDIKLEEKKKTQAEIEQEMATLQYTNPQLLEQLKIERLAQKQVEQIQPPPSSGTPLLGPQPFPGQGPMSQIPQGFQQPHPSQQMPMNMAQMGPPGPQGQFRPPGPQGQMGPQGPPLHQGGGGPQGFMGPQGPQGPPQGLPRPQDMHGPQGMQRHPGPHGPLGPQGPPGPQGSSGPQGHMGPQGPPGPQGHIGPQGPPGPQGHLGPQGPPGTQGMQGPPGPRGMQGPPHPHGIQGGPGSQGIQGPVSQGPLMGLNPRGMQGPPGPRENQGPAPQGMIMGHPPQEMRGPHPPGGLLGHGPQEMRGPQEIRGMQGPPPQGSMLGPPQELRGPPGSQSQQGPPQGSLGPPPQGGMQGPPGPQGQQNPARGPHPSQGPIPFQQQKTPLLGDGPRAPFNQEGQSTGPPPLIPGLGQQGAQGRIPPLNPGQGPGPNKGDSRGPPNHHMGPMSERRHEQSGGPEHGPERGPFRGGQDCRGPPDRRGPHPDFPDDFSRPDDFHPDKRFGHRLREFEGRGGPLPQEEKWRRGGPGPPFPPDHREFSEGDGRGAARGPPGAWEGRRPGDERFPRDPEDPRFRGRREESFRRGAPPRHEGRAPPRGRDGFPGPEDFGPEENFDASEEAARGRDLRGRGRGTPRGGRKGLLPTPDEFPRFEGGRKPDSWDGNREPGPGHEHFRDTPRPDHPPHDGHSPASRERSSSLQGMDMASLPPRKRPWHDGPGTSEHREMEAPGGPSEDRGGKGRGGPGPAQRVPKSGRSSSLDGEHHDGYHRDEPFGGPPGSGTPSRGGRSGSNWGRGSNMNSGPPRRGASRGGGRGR
Chain of UniProt P84103 (P84103 whole entry): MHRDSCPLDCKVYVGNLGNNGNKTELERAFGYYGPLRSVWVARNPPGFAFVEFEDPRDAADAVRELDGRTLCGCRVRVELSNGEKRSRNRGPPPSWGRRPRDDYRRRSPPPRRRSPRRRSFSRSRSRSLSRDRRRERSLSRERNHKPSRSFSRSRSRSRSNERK
Chain of UniProt P48730 (P48730 whole entry, looked up): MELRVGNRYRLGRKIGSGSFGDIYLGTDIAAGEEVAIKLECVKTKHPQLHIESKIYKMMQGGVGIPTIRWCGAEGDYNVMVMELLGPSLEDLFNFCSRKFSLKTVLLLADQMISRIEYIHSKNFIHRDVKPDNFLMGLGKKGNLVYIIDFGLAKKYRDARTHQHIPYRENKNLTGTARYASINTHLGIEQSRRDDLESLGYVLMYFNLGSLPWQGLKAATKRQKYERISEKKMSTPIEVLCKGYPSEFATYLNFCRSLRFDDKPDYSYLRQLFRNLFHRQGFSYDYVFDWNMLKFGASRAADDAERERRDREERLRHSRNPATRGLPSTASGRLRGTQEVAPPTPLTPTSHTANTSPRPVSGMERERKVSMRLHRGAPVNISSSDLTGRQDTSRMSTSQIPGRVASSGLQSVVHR
Chain of UniProt P06280 (P06280 whole entry): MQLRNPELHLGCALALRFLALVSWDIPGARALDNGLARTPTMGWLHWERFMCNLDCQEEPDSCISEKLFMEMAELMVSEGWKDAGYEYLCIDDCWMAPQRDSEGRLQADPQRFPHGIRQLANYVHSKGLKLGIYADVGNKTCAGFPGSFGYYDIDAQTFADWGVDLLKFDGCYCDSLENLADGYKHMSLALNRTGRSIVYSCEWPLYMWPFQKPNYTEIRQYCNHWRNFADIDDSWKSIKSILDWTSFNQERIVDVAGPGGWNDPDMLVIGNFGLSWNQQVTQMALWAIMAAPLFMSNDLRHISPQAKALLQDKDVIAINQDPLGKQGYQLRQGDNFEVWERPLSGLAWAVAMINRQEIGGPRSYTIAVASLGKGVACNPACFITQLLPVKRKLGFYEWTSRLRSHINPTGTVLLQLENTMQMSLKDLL
Chain of UniProt Q8IYD1 (Q8IYD1 whole entry): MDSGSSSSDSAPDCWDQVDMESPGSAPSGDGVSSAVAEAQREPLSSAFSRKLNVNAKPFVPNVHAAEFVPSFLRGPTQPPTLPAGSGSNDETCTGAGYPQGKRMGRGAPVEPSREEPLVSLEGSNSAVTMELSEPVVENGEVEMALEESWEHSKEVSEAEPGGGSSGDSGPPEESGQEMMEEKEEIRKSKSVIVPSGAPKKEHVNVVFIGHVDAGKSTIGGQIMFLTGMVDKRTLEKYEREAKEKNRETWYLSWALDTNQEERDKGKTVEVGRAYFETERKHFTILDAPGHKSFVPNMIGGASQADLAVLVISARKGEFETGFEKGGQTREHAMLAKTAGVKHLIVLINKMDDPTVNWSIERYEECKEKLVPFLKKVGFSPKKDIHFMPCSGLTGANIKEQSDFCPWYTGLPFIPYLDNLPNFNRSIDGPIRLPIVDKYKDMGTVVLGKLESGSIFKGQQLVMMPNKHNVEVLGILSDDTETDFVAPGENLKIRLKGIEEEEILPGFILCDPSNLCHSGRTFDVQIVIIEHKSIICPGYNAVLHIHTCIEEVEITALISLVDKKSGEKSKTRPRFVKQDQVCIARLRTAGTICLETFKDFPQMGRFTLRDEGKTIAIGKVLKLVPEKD
Chain of UniProt O14772 (O14772 whole entry): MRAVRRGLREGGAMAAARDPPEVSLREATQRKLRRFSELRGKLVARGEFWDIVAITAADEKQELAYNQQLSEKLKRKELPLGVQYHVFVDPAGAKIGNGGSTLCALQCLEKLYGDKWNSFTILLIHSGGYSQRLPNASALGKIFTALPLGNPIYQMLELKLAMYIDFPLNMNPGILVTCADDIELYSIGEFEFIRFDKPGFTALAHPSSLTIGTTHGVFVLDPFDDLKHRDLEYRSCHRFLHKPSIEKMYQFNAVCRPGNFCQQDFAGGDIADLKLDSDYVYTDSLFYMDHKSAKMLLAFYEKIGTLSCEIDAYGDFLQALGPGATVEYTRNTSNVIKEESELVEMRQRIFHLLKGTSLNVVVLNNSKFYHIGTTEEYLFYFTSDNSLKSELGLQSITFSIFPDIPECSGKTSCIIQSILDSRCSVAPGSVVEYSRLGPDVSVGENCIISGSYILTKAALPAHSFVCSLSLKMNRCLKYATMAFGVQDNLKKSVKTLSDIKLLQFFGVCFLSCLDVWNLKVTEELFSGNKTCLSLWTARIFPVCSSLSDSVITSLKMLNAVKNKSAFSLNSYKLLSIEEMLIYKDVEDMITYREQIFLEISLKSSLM
Chain of UniProt Q86U42 (Q86U42 whole entry): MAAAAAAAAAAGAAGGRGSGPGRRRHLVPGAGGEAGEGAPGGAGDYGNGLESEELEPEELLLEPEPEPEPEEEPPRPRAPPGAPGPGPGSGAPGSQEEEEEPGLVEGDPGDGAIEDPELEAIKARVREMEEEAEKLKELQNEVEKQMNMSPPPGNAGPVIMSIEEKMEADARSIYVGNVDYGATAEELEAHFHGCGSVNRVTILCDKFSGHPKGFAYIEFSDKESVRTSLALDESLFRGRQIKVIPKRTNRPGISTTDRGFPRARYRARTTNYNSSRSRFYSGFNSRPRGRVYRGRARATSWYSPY
Chain of UniProt P26038 (P26038 whole entry): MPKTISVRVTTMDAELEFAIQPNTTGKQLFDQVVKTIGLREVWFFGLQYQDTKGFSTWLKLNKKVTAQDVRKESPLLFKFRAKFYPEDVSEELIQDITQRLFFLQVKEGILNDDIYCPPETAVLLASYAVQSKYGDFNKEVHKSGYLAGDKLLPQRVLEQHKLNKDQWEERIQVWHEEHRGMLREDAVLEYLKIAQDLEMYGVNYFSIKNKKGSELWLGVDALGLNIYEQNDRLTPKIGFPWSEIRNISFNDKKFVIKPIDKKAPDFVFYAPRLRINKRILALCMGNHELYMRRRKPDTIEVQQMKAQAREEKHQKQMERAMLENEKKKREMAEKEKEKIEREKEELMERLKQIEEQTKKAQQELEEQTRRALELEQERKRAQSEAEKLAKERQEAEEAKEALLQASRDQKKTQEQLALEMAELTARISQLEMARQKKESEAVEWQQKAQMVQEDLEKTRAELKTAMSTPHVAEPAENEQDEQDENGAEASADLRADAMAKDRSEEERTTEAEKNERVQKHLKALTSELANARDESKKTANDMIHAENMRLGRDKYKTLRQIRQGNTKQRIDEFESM

| pEC50 | Target |
| --- | --- |
| 3.86 | UniProt P48730 (effect direction: stabilized) |
| 3.87 | SAR1A (effect direction: stabilized) (UniProt Q9NR31) |
| 3.82 | GBP1 (effect direction: stabilized) (UniProt P32455) |
| 3.93 | NUBPL (effect direction: stabilized) (UniProt Q8TB37) |
| 4.27 | GSPT2 (effect direction: stabilized) (UniProt Q8IYD1) |
| 3.91 | FPGT (effect direction: stabilized) (UniProt O14772) |
| 3.94 | UniProt P84103 (effect direction: stabilized) |
| 3.55 | PANK4 (effect direction: stabilized) (UniProt Q9NVE7) |

compound: Nc1ncnc2c1ncn2[C@@H]1O[C@H](COP(=O)(O)OP(=O)(O)OP(=O)(O)O)[C@@H](O)[C@H]1O [adenosine triphosphate]; test: pEC50 of ATP-induced change in protein thermal stability (2D-TPP)
How it was run: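 Each of three independent experiments used Jurkat crude lysate given five concentrations including vehicle (10 min, room temperature), followed by 3 min at one of 12 temperatures from 42 to 63.9 °C and NP40 with benzonase (60 min, 4 °C). TMT LC-MS/MS quantified soluble protein after ultracentrifugation, expressed as fold changes against vehicle at each temperature with median normalisation. For pEC50, dose-response curves were fitted per replicate over adjacent temperature pairs, and hits were called through permutation-based false discovery rate control.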

| pEC50 | Target |
| --- | --- |
| 2.96 | PHKG2 (effect direction: stabilized) (UniProt P15735) |
| 3.3 | JAKMIP1 (effect direction: stabilized) (UniProt Q96N16) |
| 3.3 | RAD54L2 (effect direction: stabilized) (UniProt Q9Y4B4) |
| < 2.7 | DDHD2 (effect direction: stabilized) (UniProt O94830) |
| < 2.7 | NCL (effect direction: stabilized) (UniProt P19338) |
| 4.35 | UniProt Q96C57 (effect direction: destabilized) |
| 3.04 | MSN (effect direction: destabilized) (UniProt P26038) |
| 3.37 | SUB1 (effect direction: destabilized) (UniProt P53999) |
| 3.66 | NFKB1 (effect direction: stabilized) (UniProt P19838) |
| 4.18 | KIF2C (effect direction: stabilized) (UniProt Q99661) |
| 3.67 | RBM26 (effect direction: stabilized) (UniProt Q5T8P6) |
| 4.04 | CENPE (effect direction: stabilized) (UniProt Q02224) |
| < 2.7 | EDF1 (effect direction: stabilized) (UniProt O60869) |
| 3.01 | UniProt P62826 (effect direction: destabilized) |
| 3.82 | ADK (effect direction: stabilized) (UniProt P55263) |
| 3.03 | GLA (effect direction: stabilized) (UniProt P06280) |

| pEC50 | Target |
| --- | --- |
| 2.84 | ZRANB2 (effect direction: stabilized) (UniProt O95218) |
| 2.91 | ZC3HC1 (effect direction: stabilized) (UniProt Q86WB0) |
| 3.52 | HMGN4 (effect direction: stabilized) (UniProt O00479) |
| 3.18 | ASNS (effect direction: stabilized) (UniProt P08243) |
| < 2.7 | WDR33 (effect direction: stabilized) (UniProt Q9C0J8) |
| 2.9 | ALDH9A1 (effect direction: stabilized) (UniProt P49189) |
| 3.23 | PABPN1 (effect direction: destabilized) (UniProt Q86U42) |
| 3.19 | TTC37 (effect direction: stabilized) (UniProt Q6PGP7) |
| 3.34 | NAT14 (effect direction: stabilized) (UniProt Q8WUY8) |
| < 2.7 | PPM1F (effect direction: stabilized) (UniProt P49593) |
| 2.92 | UniProt Q5VZE5 (effect direction: stabilized) |
| 2.77 | CDIPT (effect direction: destabilized) (UniProt O14735) |
| < 2.7 | CPSF1 (effect direction: stabilized) (UniProt Q10570) |
| 3.63 | UniProt O43929 (effect direction: stabilized) |
| 3.26 | TPP1 (effect direction: stabilized) (UniProt O14773) |
| 5 | CAP1 (effect direction: stabilized) (UniProt Q01518) |
